Legend:
[1] = tested on: Diet induced obese (DIO) mice; assay: Indirect calorimetry (CLAMS) of high fat diet/DIO mice treated with N-acyl amino acids; assay type: in vivo, mouse
Description: Animal experiments were performed according to procedures approved by the Beth Israel Deaconess Medical Center IACUC. Mice were maintained in 12 h light-dark cycles at 22° C. and fed a standard irradiated rodent chow diet. All experiments on wild-type mice were performed with male C57BL/6 mice purchased from Jackson Laboratories, except for the AAV experiments, which were performed with male C57BL/6 mice from Charles River. UCP1-KO (stock #017476) and 16-20 week DIO mice (stock #380050) were obtained from Jackson Laboratories. For AAV injection experiments, mice were gently warmed using a 250 W clear infrared heat lamp, immobilized, and injected via tail vein with 10^10 virus/mouse (diluted in saline) in a total volume of 100 μl/mouse. Where indicated, mice were placed on high-fat diet (60% fat, Research Diets). For cold exposure experiments, mice were group housed and placed at 4° C. for the indicated times. For the preparation of C18:1-Phe for in vivo injections, compounds were dissolved in 18:1:1 v/v/v saline:Kolliphor® EL (Sigma Aldrich):DMSO and sonicated until homogeneous. Mice were administered compounds at 5 μl/g body weight at the indicated doses. For all injection experiments, mice were mock injected with saline daily for 3 days prior to the start of the experiments. For glucose tolerance tests (GTTs), mice received their final dose of compound the day prior to the assay and were then fasted overnight. Glucose was administered at 1.5 g/kg.
Energy expenditure, O2 consumption, CO2 production, respiratory exchange ratio, total locomotor activity, and food intake measurements were made with a 16-cage Columbus Instruments Oxymax Comprehensive Lab Animal Monitoring System (CLAMS) at ambient room temperature (21-23° C.). Mice were acclimated for one day in metabolic cages prior to data collection. Whole-body composition was assessed with an EchoMRI™ 3-in-1 on conscious mice.

U2OS cells = assay: Cellular oxygen consumption rate (uncoupled respiration), U2OS cells; assay type: cell-based, human; conditions: 50 μM, after oligomycin 1 μM
Description: C2C12, U2O5, and 293A cells were cultured in DMEM with 10% FBS and pen/strep. Primary inguinal (iWAT) and brown (BAT) adipocytes were obtained as follows. The stromal-vascular fraction of inguinal (iWAT) pad from 4-12 week old male mice was dissected, minced, and digested for 45 min. at 37° C. in PBS containing 10 mM CaCl2, 2.4 U/ml dispase II (Roche), and 1.5 U/ml collagenase D (Roche). The stromal-vascular fraction of brown fat (BAT) pads from newborn (P1-P14) pups was dissected, minced, and digested for 45 min at 37° C. in PBS containing 1.3 mM CaCl2, 120 mM NaCl, 5 mM KCl, 5 mM glucose, 100 mM HEPES, 4% BSA, and 1.5 mg/ml collagenase B (Roche). Digested tissue was diluted with adipocyte culture media (DMEM/F-12, GlutaMAX™ supplement, Life Technologies, with 10% FBS and pen/strep) and centrifuged (600×g for 10 min.). The pellet was resuspended in 10 ml adipocyte culture media, strained through a 40 μm filter, and plated. Differentiation was induced by application of an adipogenic cocktail containing 5 μg/ml insulin (Sigma), 5 μM dexamethasone (Sigma), 250 μM isobutylmethylxanthine (Sigma), and 1 μM rosiglitazone (Cayman) for 2 days. Two days after induction, cells were maintained in adipocyte culture media containing 5 μg/ml insulin and 1 μM rosiglitazone.
Cellular oxygen consumption rates were determined using an XF24 Extracellular Flux Analyzer (Seahorse Biosciences). Oligomycin was purchased from EMD Millipore, and FCCP and rotenone were purchased from Sigma. C2C12 or U2OS cells were seeded at 30,000 or 50,000 cells/well, respectively in an XF24 cell culture microplate (V7-PS, Seahorse Bioscience) and analyzed the following day. Primary iWAT or BAT adipocytes were seeded at 15,000 cells/well, differentiation was induced the following day as described, and the cells were analyzed on day 5. On the day of analysis, the cells were washed once with Seahorse respiration buffer (8.3 g/1 DMEM, 1.8 g/l NaCl, 1 mM pyruvate, 20 mM glucose, pen/strep), placed in 0.5 ml Seahorse respiration buffer, and incubated in a CO2-free incubator for 1 hr. Port injection solutions were prepared as follows (final concentrations in assay in parentheses): 10 μM oligomycin (1 μM final), […] amino acid (50 μM final), 2 μM FCCP (0.2 μM final), and 30 μM rotenone (3 μM final). The Seahorse program was run as follows: basal measurement, 3 cycles; inject port A (oligomycin), 3 cycles; inject port B (compounds), 8 cycles; inject port C (FCCP), 3 cycles; inject port D (rotenone), 3 cycles. Each cycle consisted of mix 4 min, wait 0 min, and measure 2 min. For data expressed as a percentage of oligomycin-treated basal, the respiration at cycle 6 was normalized to 100%, and the maximum respiration at any time point between cycles 7 and 15 inclusive was used.

[2] = tested on: primary inguinal fat cells, primary BAT cells, C2C12 cells, and U2OS cells; assay: Uncoupled respiration cellular assays (variety of cell types); assay type: cell-based; conditions: N-acyl amino acids at 10-100 uM
[3] = tested on: differentiated primary BAT cells; assay: Cellular oxygen consumption rate (Seahorse XF24), differentiated primary BAT adipocytes; assay type: cell-based, mouse; conditions: 50 μM, in presence of oligomycin (1 μM)
Description: C2C12, U2O5, and 293A cells were cultured in DMEM with 10% FBS and pen/strep. Primary inguinal (iWAT) and brown (BAT) adipocytes were obtained as follows. The stromal-vascular fraction of inguinal (iWAT) pad from 4-12 week old male mice was dissected, minced, and digested for 45 min. at 37° C. in PBS containing 10 mM CaCl2, 2.4 U/ml dispase II (Roche), and 1.5 U/ml collagenase D (Roche). The stromal-vascular fraction of brown fat (BAT) pads from newborn (P1-P14) pups was dissected, minced, and digested for 45 min at 37° C. in PBS containing 1.3 mM CaCl2, 120 mM NaCl, 5 mM KCl, 5 mM glucose, 100 mM HEPES, 4% BSA, and 1.5 mg/ml collagenase B (Roche). […]
Cellular oxygen consumption rates were determined using an XF24 Extracellular Flux Analyzer (Seahorse Biosciences). […] C2C12 or U2OS cells were seeded at 30,000 or 50,000 cells/well, respectively in an XF24 cell culture microplate (V7-PS, Seahorse Bioscience) and analyzed the following day. Primary iWAT or BAT adipocytes were seeded at 15,000 cells/well, differentiation was induced the following day as described, and the cells were analyzed on day 5. […] For data expressed as a percentage of oligomycin-treated basal, the respiration at cycle 6 was normalized to 100%, and the maximum respiration at any time point between cycles 7 and 15 inclusive was used.

BAT mitochondria = assay: Respiration of isolated crude BAT mitochondria; assay type: biochemical, mouse; conditions: 10-100 μM; 10 mM pyruvate and 5 mM malate as substrates
Description: BAT pads from ten 6-12 week old male mice were harvested and minced on ice in isolation buffer (250 mM sucrose, 5 mM HEPES, and 1 mM EGTA) supplemented with 2% fatty acid-free BSA (Sigma). The tissue was then homogenized in a Teflon homogenizer and centrifuged (8,500×g, 10 min, 4° C.). The supernatant was discarded, the pellet was re-suspended in 20 ml isolation buffer supplemented with 1% fatty acid-free BSA, and centrifuged (700×g, 10 min, 4° C.). The supernatant was centrifuged one final time (8,500×g, 10 min, 4° C.). The pellet was re-suspended in isolation buffer supplemented with 1% fatty acid-free BSA (200 μl) to yield crude BAT mitochondria at 50-80 mg/ml. For respiration measurements, BAT mitochondria were diluted to in mitochondria respiration buffer (5 mM KCl, 4 mM KH2PO4, 5 mM HEPES, 1 mM EGTA, 1% fatty acid free BSA, 10 mM pyruvate, 5 mM malate, and 1 mM GDP) and plated at 15 μg/well (50 μl total volume) in an XF24 cell culture microplate. The plate was centrifuged (1000×g, 20 min, 4° C.), additional pre-warmed mitochondrial respiration buffer was added (450 μl), and respiration was measured on a XF24 Extracellular Flux Analyzer. The Seahorse program was run as follows: basal measurement, 2 cycles; inject port A (compounds), 1 cycle, inject port B (FCCP), 1 cycle, inject port C (rotenone), 1 cycle. Each cycle consisted of mix 0.5 min, wait 0 min, measure 2 min. […]

[4] = daily i.p.: C18:1-Leu 25, C18:1-Phe 30, C20:4-Gly 15 mg/kg/day

CCCCCCCC/C=C\CCCCCCCC(=O)N[C@@H](Cc1ccccc1)C(=O)O [C18:1-Phe, Oleoyl-L-phenylalanine]
movement ([1]; 16-week high fat diet mice, 10 mg/kg daily, days 5 and 6): similar | VO2 [1, 4]: significantly augmented | movement [1, 4]: no effects | uncoupling activity (uncoupled respiration) (U2OS cells): possessed uncoupling activity | uncoupled respiration in cells [2]: increased uncoupled respiration | maximal OCR versus DMSO at the same time point [3]: 156% | maximal OCR versus oligomycin-treated basal respiration [3]: 198% | respiration of isolated mitochondria (BAT mitochondria): increased respiration in a dose-dependent manner

— patent US12194080B2, “Methods for identification, assessment, prevention, and treatment of metabolic disorders using PM20D1 and N-lipidated amino acids” (Dana-Farber Cancer Institute, Inc., priority 2015, dated 2025)
